Row | Compound | melting point [°C]
1 | CN1CCN(CC(=O)NCc2ccc(-c3cc4c(Nc5ccc(F)c(Cl)c5)ncnc4[nH]3)cc2)CC1 [Example 50, N-{4-[4-(3-Chloro-4-fluoro-phenylamino)-7H-pyrrolo[2,3-d]pyrimidin-6-yl]-benzyl}-2-(4-methyl-piperazin-1-yl)-acetamide] | 246 to 249
2 | CCN1CCN(Cc2cccc(-c3cc4c(N[C@H](C)c5ccccc5)ncnc4[nH]3)c2)CC1 [Example 27, {6-[3-(4-Ethyl-piperazin-1-ylmethyl)-phenyl]-7H-pyrrolo[2,3-d]pyrimidin-4-yl}-((R)-1-phenyl-ethyl)-amine] | 128 to 130
3 | CN(C)Cc1ccc(-c2cc3c(NCc4ccccc4Cl)ncnc3[nH]2)cc1 [Example 90, (2-Chloro-benzyl)-[6-(4-dimethylaminomethyl-phenyl)-7H-pyrrolo[2,3-d]pyrimidin-4-yl]-amine] | 256 to 258
4 | O=C(CN1CCCCC1)NCc1cccc(-c2cc3c(Nc4ccc(F)c(Cl)c4)ncnc3[nH]2)c1 [Example 66, N-{3-[4-(3-Chloro-4-fluoro-phenylamino)-7H-pyrrolo[2,3-d]pyrimidin-6-yl]-benzyl}-2-piperidin-1-yl-acetamide] | 252 to 254
5 | CCN1CCN(Cc2ccc(-c3cc4c(NCc5cc(Cl)ccc5Cl)ncnc4[nH]3)cc2)CC1 [Example 97, (2,5-Dichloro-benzyl)-{6-[4-(4-ethyl-piperazin-1-ylmethyl)-phenyl]-7H-pyrrolo[2,3-d]pyrimidin-4-yl}-amine] | 249 to 251
6 | Clc1ccccc1CNc1ncnc2[nH]c(-c3ccc(CN4CCCC4)cc3)cc12 [Example 95, (2-Chloro-benzyl)-[6-(4-pyrrolidin-1-ylmethyl-phenyl)-7H-pyrrolo[2,3-d]pyrimidin-4-yl]-amine] | 264 to 265
7 | C[C@@H](Nc1ncnc2[nH]c(-c3ccc(CNC(C)(C)C)cc3)cc12)c1ccccc1 [Example 16d, {6-[4-(tert-Butylamino-methyl)-phenyl]-7H-pyrrolo[2,3-d]pyrimidin-4-yl}-((R)-1-phenyl-ethyl)-amine] | > 300
8 | CN(C)Cc1ccc(-c2cc3c(Nc4cccc(Cl)c4)ncnc3[nH]2)cc1.Cl | 280 to 283
9 | C[C@@H](Nc1ncnc2[nH]c(-c3cccc(CN(C)C)c3)cc12)c1ccccc1 [Example 25, [6-(3-Dimethylaminomethyl-phenyl)-7H-pyrrolo[2,3-d]pyrimidin-4-yl]-((R)-1-phenyl-ethyl)-amine] | 108 to 110
10 | Cc1ccc(Nc2ncnc3[nH]c(-c4ccc(CN5CCN(C)CC5)cc4)cc23)cc1O [Example 72, 2-Methyl-5-{6-[4-(4-methyl-piperazin-1-ylmethyl)-phenyl]-7H-pyrrolo[2,3-d]pyrimidin-4-ylamino}-phenol] | > 300
11 | C[C@@H](Nc1ncnc2[nH]c(-c3cccc(CN4CCN(C)CC4)c3)cc12)c1ccccc1 [Example 29, {6-[3-(4-Methyl-piperazin-1-ylmethyl)-phenyl]-7H-pyrrolo[2,3-d]pyrimidin-4-yl}-((R)-1-phenyl-ethyl)-amine] | 112 to 115
12 | C[C@@H](Nc1ncnc2[nH]c(-c3ccc(CNC(=O)CN4CCOCC4)cc3)cc12)c1ccccc1 [Example 42, 2-Morpholin-4-yl-N-{4-[4-((R)-1-phenyl-ethyl-amino)-7H-pyrrolo[2,3-d]pyrimidin-6-yl]-benzyl}-acetamide] | 199 to 202
13 | COc1ccc(Nc2ncnc3[nH]c(-c4cccc(CN5CCN(C)CC5)c4)cc23)cc1O [Example 69, 2-Methoxy-5-{6-[3-(4-methyl-piperazin-1-ylmethyl)-phenyl]-7H-pyrrolo[2,3-d]pyrimidin-4-ylamino}-phenol] | 251 to 252
14 | CCN(CC)CCNCc1ccc(-c2cc3c(Nc4ccc(F)c(Cl)c4)ncnc3[nH]2)cc1 [Example 8c, N-{4-[4-(3-Chloro-4-fluoro-phenylamino)-7H-pyrrolo[2,3-d]pyrimidin-6-yl]-benzyl}-N′,N′-diethyl-ethane-1,2-diamine] | 229 to 231
15 | CCN1CCN(Cc2ccc(-c3cc4c(Nc5ccc(OCc6ccccc6)cc5)ncnc4[nH]3)cc2)CC1 [Example 22, (4-Benzyloxy-phenyl)-{6-[4-(4-ethyl-piperazin-1-ylmethyl)-phenyl]-7H-pyrrolo[2,3-d]pyrimidin-4-yl}-amine] | 256 to 258
16 | CCN1CCN(CC(=O)NCc2ccc(-c3cc4c(N[C@H](C)c5ccccc5)ncnc4[nH]3)cc2)CC1 [Example 45, 2-(4-Ethyl-piperazin-1-yl)-N-{4-[4-((R)-1-phenyl-ethylamino)-7H-pyrrolo[2,3-d]pyrimidin-6-yl]-benzyl}-acetamide] | 121 to 124
17 | C[C@@H](Nc1ncnc2[nH]c(-c3ccc(CN(C)C)cc3)cc12)c1ccc(Cl)cc1 [Example 76, [(R)-1-(4-Chloro-phenyl)-ethyl]-[6-(4-dimethylaminomethyl-phenyl)-7H-pyrrolo[2,3-d]pyrimidin-4-yl]-amine] | 273 to 274
18 | CN(C)Cc1cccc(-c2cc3c(Nc4ccc(F)c(Cl)c4)ncnc3[nH]2)c1 [Example 33, (3-Chloro-4-fluoro-phenyl)-[6-(3-dimethylaminomethyl-phenyl)-7H-pyrrolo[2,3-d]pyrimidin-4-yl]-amine] | 218 to 220
19 | c1ccc(COc2ccc(Nc3ncnc4[nH]c(-c5ccc(CN6CCCCC6)cc5)cc34)cc2)cc1 [Example 19, (4-Benzyloxy-phenyl)-[6-(4-piperidin-1-ylmethyl-phenyl)-7H-pyrrolo[2,3-d]pyrimidin-4-yl]-amine] | 256 to 258
20 | CN(C)Cc1ccc(-c2cc3c(Nc4ccc(F)c(Cl)c4)ncnc3[nH]2)cc1 [Example 1, (3-Chloro-4-fluoro-phenyl)-[6-(4-dimethylaminomethyl-phenyl)-7H-pyrrolo[2,3-d]pyrimidin-4-yl]-amine] | 274 to 276
21 | Cc1ccc(Nc2ncnc3[nH]c(-c4cccc(CN5CCN(C)CC5)c4)cc23)cc1O [Example 67, 2-Methyl-5-{6-[3-(4-methyl-piperazin-1-ylmethyl)-phenyl]-7H-pyrrolo[2,3-d]pyrimidin-4-ylamino}-phenol] | 256 to 258
22 | Fc1ccc(Nc2ncnc3[nH]c(-c4ccc(CNCCN5CCOCC5)cc4)cc23)cc1Cl [Example 8b, (3-Chloro-4-fluoro-phenyl)-(6-{4-[(2-morpholin-4-yl-ethyl-amino)-methyl]-phenyl}-7H-pyrrolo[2,3-d]pyrimidin-4-yl)-amine] | 224 to 226
23 | Fc1ccc(Nc2ncnc3[nH]c(-c4cccc(CN5CCOCC5)c4)cc23)cc1Cl [Example 39, (3-Chloro-4-fluoro-phenyl)-[6-(3-morpholin-4-ylmethyl-phenyl)-7H-pyrrolo[2,3-d]pyrimidin-4-yl]-amine] | 290 to 292
24 | Clc1cccc(CNc2ncnc3[nH]c(-c4ccc(CN5CCCCC5)cc4)cc23)c1 [Example 85, (3-Chloro-benzyl)-[6-(4-piperidin-1-ylmethyl-phenyl)-7H-pyrrolo[2,3-d]pyrimidin-4-yl]-amine] | 234 to 235

Further lines, results first:

Row | melting point [°C] | Compound
25 | 250 to 252 | CCN1CCN(Cc2ccc(-c3cc4c(NCc5cccc(C)c5)ncnc4[nH]3)cc2)CC1 [Example 107j, {6-[4-(4-Ethyl-piperazin-1-ylmethyl)-phenyl]-7H-pyrrolo[2,3-d]pyrimidin-4-yl}-(3-methyl-benzyl)-amine]
26 | 280 to 282 | Cc1cc2c(F)c(Oc3ncnc4[nH]c(-c5ccc(CN6CCOCC6)cc5)cc34)ccc2[nH]1 [Example 143, 4-(4-Fluoro-2-methyl-1H-indol-5-yloxy)-6-(4-morpholin-4-ylmethyl-phenyl)-7H-pyrrolo[2,3-d]pyrimidine]
27 | 241 to 242 | COc1ccc(Nc2ncnc3[nH]c(-c4ccc(CN5CCN(C)CC5)cc4)cc23)cn1 [Example 112, (6-Methoxy-pyridin-3-yl)-{6-[4-(4-methyl-piperazin-1-ylmethyl)-phenyl]-7H-pyrrolo[2,3-d]pyrimidin-4-yl}-amine]
28 | 263 to 265 | COc1cccc(CNc2ncnc3[nH]c(-c4ccc(CN5CCOCC5)cc4)cc23)c1 [Example 107a, (3-Methoxy-benzyl)-[6-(4-morpholin-4-ylmethyl-phenyl)-7H-pyrrolo[2,3-d]pyrimidin-4-yl]-amine]
29 | 254 to 257 | CN(C)Cc1ccc(-c2cc3c(NCc4cc(Cl)ccc4Cl)ncnc3[nH]2)cc1 [Example 98, (2,5-Dichloro-benzyl)-[6-(4-dimethylaminomethyl-phenyl)-7H-pyrrolo[2,3-d]pyrimidin-4-yl]-amine]
30 | 244 to 246 | Cc1cccc(CNc2ncnc3[nH]c(-c4ccc(CN5CCN(C)CC5)cc4)cc23)c1 [Example 107i, (3-Methyl-benzyl)-{6-[4-(4-methyl-piperazin-1-ylmethyl)-phenyl]-7H-pyrrolo[2,3-d]pyrimidin-4-yl}-amine]
31 | 272 to 274 | Clc1ccc(Cl)c(CNc2ncnc3[nH]c(-c4ccc(CN5CCOCC5)cc4)cc23)c1 [Example 99, (2,5-Dichloro-benzyl)-[6-(4-morpholin-4-ylmethyl-phenyl)-7H-pyrrolo[2,3-d]pyrimidin-4-yl]-amine]
32 | 246 to 248 | Cc1cccc(CNc2ncnc3[nH]c(-c4ccc(CN5CCCCC5)cc4)cc23)c1 [Example 107d, (3-Methyl-benzyl)-[6-(4-piperidin-1-ylmethyl-phenyl)-7H-pyrrolo[2,3-d]pyrimidin-4-yl]-amine]
33 | 259 to 261 | Cc1cccc(CNc2ncnc3[nH]c(-c4ccc(CN5CCOCC5)cc4)cc23)c1 [Example 107e, (3-Methyl-benzyl)-[6-(4-morpholin-4-ylmethyl-phenyl)-7H-pyrrolo[2,3-d]pyrimidin-4-yl]-amine]
34 | 291 to 292 | CCN1CCN(Cc2ccc(-c3cc4c(NCc5cc[nH]c(=O)c5)ncnc4[nH]3)cc2)CC1 [Example 129, 4-({6-[4-(4-Ethyl-piperazin-1-ylmethyl)-phenyl]-7H-pyrrolo[2,3-d]pyrimidin-4-ylamino}-methyl)-1H-pyridin-2-one]
35 | 210 to 212 | CCN1CCN(Cc2ccc(-c3cc4c(NCc5ccnc(OC)c5)ncnc4[nH]3)cc2)CC1 [Example 122, (2-Methoxy-pyridin-4-ylmethyl)-{6-[4-(4-ethyl-piperazin-1-ylmethyl)-phenyl]-7H-pyrrolo[2,3-d]pyrimidin-4-yl}-amine]
